# Patent publication US6916806B2, “Medicinal composition containing 1,3-thiazine derivative” (priority 2001, dated 2005)
# What was measured:
# [1] = molecular target: T1, human CB2 receptor (CB2R) (Homo sapiens, UniProt P34972); assay: Human CB2 receptor (CB2R) binding inhibition, [3H]CP55940, membranes of CB2R-expressing CHO cells
# T1 construct: The coding region of human CB2R cDNA (Munro etc, Nature, 1993, 365, 61-65) was inserted; expressed in transfected cells
# Experimental: (§1) The coding region of human CB2R cDNA (Munro etc, Nature, 1993, 365, 61-65) was inserted into the mammalian expression vector, pSVL SV40 Late Promoter Expression Vector (Amersham Pharmacia Biotech Inc.). The prepared vector was transfected into Chinese Hamster Ovary (CHO) cells with LipofectAMINE reagent (Gibco BRL) according to the manufacture's protocol, and the stable CB2R-expressing clones were selected.
# (§2) The crude membrane fractions were prepared from the CB2R-expressing CHO cells. Receptor binding assay was performed by incubating the membranes with each test compound and [^3H]CP55940 (at a final concentration of 0.5 nM: NEN Life Science Products) in the assay buffer (50 mM Tris-HCl, 1 mM EDTA, 3 mM MgCl2, pH 7.4) containing 0.5% bovine serum albumin (BSA) for 2 h at 25° C. The incubation mixture was filtered through 1% polyethylenimine-treated GF/C glass filter and washed with 50 mM Tris-HCl (pH 7.4) containing 0.1% BSA. The radioactivity was then counted with a liquid scintillation counter.
# (§3) For the receptor binding assay of human CB1 receptor (CB1R), the stable CB1R-expressing CHO cells were prepared as described above, and the binding assay was performed using their membrane fractions. As a consequence of these studies, the Ki values of each test compound for both cannabinoid receptors were determined, which were presented in Table.
# [2] = molecular target: T2, human CB1 receptor (CB1R) (Homo sapiens, UniProt P21554); assay: Receptor binding assay of human CB1 receptor (CB1R), membranes of CB1R-expressing CHO cells
# T2 construct: expressed in transfected cells
# T2 sequence (P21554 whole entry): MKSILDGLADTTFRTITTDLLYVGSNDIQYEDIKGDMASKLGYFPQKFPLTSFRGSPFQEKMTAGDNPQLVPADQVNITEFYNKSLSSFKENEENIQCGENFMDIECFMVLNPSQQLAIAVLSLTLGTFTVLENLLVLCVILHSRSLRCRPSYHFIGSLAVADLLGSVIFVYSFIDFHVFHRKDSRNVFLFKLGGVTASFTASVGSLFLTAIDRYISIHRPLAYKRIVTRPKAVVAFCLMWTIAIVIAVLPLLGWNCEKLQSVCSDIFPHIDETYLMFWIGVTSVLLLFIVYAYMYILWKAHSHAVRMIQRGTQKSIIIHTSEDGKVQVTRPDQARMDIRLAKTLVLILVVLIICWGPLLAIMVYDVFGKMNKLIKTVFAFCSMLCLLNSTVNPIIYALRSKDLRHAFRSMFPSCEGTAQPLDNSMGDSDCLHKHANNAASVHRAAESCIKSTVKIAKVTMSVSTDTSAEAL
# Experimental: as §1, §2, §3
# human CB2R = molecular target: T3, human CB2R (Homo sapiens, UniProt P34972); assay: CB2R-mediated suppression of forskolin-stimulated cAMP synthesis in CHO cells expressing human CB2R; type: cell-based
# T3 construct: The coding region of human CB2R cDNA (Munro etc, Nature, 1993, 365, 61-65) was inserted; expressed in transfected cells
# T3 sequence (P34972 whole entry): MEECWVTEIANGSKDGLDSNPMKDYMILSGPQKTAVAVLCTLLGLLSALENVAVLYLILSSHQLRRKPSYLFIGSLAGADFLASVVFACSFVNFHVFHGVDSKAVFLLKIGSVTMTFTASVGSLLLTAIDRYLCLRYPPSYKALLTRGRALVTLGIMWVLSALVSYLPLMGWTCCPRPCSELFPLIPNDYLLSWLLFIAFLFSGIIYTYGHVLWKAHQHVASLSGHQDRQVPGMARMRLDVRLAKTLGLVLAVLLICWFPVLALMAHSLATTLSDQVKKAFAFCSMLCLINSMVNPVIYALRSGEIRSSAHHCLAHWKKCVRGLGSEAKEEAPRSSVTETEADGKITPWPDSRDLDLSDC
# Experimental: The CHO cells expressing human CB2R were incubated with test compounds for 15 min. After the incubation, forskolin (final concentration of 4 μM, Sigma) was added and the cells were incubated for 20 min at 37° C. The reaction was stopped by the addition of 1N HCl and the amount of cAMP in the cell supernatant was measured using an EIA kit (Amersham Pharmacia Biotech) according to the manufacture's protocol.
# The antagonistic activity of each compound was also evaluated in this assay.
# T1 sequence (P34972 whole entry): as above
SMILES,Ki [1] [nM],melting point [°C],Ki [2] [nM],IC50 (human CB2R) [nM]
CC(C)OC(=O)CSC(=S)N1CC(C)(C)CSC1=Nc1ccccc1C(C)C [Compound I-13],6,95 to 96,,
CC(C)c1ccccc1N=C1SCC(C)(C)CN1C(=S)SCC(=O)OC(C)(C)C [Compound I-14],2,,> 5000,
C=CCSC(=S)N1CC(CC)(CC)CSC1=Nc1ccccc1C(C)C [Compound I-39],2,,906,13.7
CCOC(=O)CSC(=S)N1CC(CC)(CC)CSC1=Nc1ccccc1C(C)C [Compound I-40],0.5,,,
CCC1(CC)CSC(=Nc2ccccc2C(C)C)N(C(=S)SCC(=O)OC(C)C)C1 [Compound I-41],1,,,
CCC1(CC)CSC(=Nc2ccccc2C(C)C)N(C(=S)SCC(=O)OC(C)(C)C)C1 [Compound I-42],0.3,,> 5000,
CC=CCSC(=S)N1CC(CC)(CC)CSC1=Nc1ccccc1C(C)C [Compound I-44],1.1,,321,
CCC1(CC)CSC(=Nc2ccccc2C(C)C)N(C(=S)SCC=C(C)C)C1 [Compound I-45],1.2,,386,
C=CCCSC(=S)N1CC(CC)(CC)CSC1=Nc1ccccc1C(C)C [Compound I-46],2,,3230,5.4
C=CCSC(=S)N1CC(CC)(CC)CSC1=Nc1ccccc1C(C)CC (stereo not drawn) [Compound I-49],2.9,,1120,2.2
C=CCSC(=S)N1CC2(CCCC2)CSC1=Nc1ccccc1C(C)C [Compound I-74],1.2,,704,1.6
Cc1cc(CSC(=S)N2CC3(CCCC3)CSC2=Nc2ccccc2C(C)C)on1 [Compound I-78],,,1020,
COc1ccccc1N=C1SCC2(CCCC2)CN1C(=S)SCC(=O)OC(C)(C)C [Compound I-80],2.2,,> 5000,
C=CCSC(=S)N1CC2(CCCCC2)CSC1=Nc1ccc(CC)cc1 [Compound I-88],,98 to 100,,
C=CCSC(=S)N1CC2(CCOCC2)CSC1=Nc1ccccc1C(C)C [Compound I-92],6,73.5 to 75,1310,< 0.2
CSC(=S)N1CC2(CCOCC2)CSC1=Nc1ccccc1C(C)C [Compound I-93],3,127 to 128,1540,0.6
